The source of these data is patent US8377667B2, “Microorganisms for the production of 1,4-butanediol, 4-hydroxybutanal, 4-hydroxybutyryl-CoA, putrescine and related compounds, and methods related thereto” (Genomatica, Inc., priority 2009, dated 2013).

The labels stand for the following.
T1: BK (Clostridium acetobutylicum, UniProt Q45829)
T1 construct: made in house; host or cells: E. coli, crude cell extract (pZA33-0020-0021)
T1 sequence (Q45829 1-355): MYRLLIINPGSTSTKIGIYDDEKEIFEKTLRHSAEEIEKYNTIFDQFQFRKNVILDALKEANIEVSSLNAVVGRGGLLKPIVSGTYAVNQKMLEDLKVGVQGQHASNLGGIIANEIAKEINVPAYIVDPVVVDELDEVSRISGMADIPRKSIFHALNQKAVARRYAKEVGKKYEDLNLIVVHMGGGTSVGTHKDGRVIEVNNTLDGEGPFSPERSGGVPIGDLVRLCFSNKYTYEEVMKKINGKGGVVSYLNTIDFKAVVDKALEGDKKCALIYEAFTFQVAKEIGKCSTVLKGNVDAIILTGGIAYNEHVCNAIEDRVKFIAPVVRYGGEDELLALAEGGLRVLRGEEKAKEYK

B1: BK: Butyrate kinase from C. acetobutylicum (gene 0021), native ptb/bk operon expressed in pZA33; cell extract (protein, listed as Clostridium acetobutylicum)
chain: MYRLLIINPGSTSTKIGIYDDEKEIFEKTLRHSAEEIEKYNTIFDQFQFRKNVILDALKEANIEVSSLNAVVGRGGLLKPIVSGTYAVNQKMLEDLKVGVQGQHASNLGGIIANEIAKEINVPAYIVDPVVVDELDEVSRISGMADIPRKSIFHALNQKAVARRYAKEVGKKYEDLNLIVVHMGGGTSVGTHKDGRVIEVNNTLDGEGPFSPERSGGVPIGDLVRLCFSNKYTYEEVMKKINGKGGVVSYLNTIDFKAVVDKALEGDKKCALIYEAFTFQVAKEIGKCSTVLKGNVDAIILTGGIAYNEHVCNAIEDRVKFIAPVVRYGGEDELLALAEGGLRVLRGEEKAKEYK

The first series addresses T1, BK. Put plainly: Butyrate kinase (BK) enzyme activity, butyrate to butyryl-phosphate. The note with it: extracts from cells containing pZA33-0020-0021. The class given is biochemical, C. acetobutylicum. The procedure:
The enzyme activity of PTB is measured in the direction of butyryl-CoA to butyryl-phosphate as described in Cary et al. J. Bacteriol. 170:4613-4618 (1988). It provides inorganic phosphate for the conversion, and follows the increase in free CoA with the reagent 5,5′-dithiobis-(2-nitrobenzoic acid), or DTNB. DTNB rapidly reacts with thiol groups such as free CoA to release the yellow-colored 2-nitro-5-mercaptobenzoic acid (TNB), which absorbs at 412 nm with a molar extinction coefficient of 14,140 M cm^−1. The assay buffer contained 150 mM potassium phosphate at pH 7.4, 0.1 mM DTNB, and 0.2 mM butyryl-CoA, and the reaction was started by addition of 2 to 50 μL cell extract. The enzyme activity of BK is measured in the direction of butyrate to butyryl-phosphate formation at the expense of ATP. The procedure is similar to the assay for acetate kinase previously described Rose et al., J. Biol. Chem. 211:737-756 (1954). However we have found another acetate kinase enzyme assay protocol provided by Sigma to be more useful and sensitive. […] The reaction was started by adding 2 to 50 μL cell extract, and the reaction was monitored based on the decrease in absorbance at 340 nm indicating NADH oxidation. […]
Regarding B1, the “specific activity of BK” value is reported as “approximately 65 U/mg”.

In a further series the test system is aminotransferase from Leishmania mexicana.
Assay: not given
The note with it: activity considered 100% on tyrosine; cited from earlier work.
On to `N[C@@H](Cc1c[nH]c2ccccc12)C(=O)O` [tryptophan], for which the “activity (substrate specificity)” value is 85%.
With `CC(C)C[C@H](N)C(=O)O` [leucine], the “activity (substrate specificity)” value is on record as 25%.
Consider `N[C@@H](Cc1ccccc1)C(=O)O` [phenylalanine], for which the “activity (substrate specificity)” value was 90%.
On to `N[C@@H](Cc1ccc(O)cc1)C(=O)O` [tyrosine], for which the “activity (substrate specificity)” value is recorded as 100%.
For `CSCC[C@H](N)C(=O)O` [methionine], the “activity (substrate specificity)” value is on record as 25%.
